{"source": "ChEMBL document CHEMBL2429841", "about": "“Effect of incorporating a thiophene tail in the scaffold of acetazolamide on the inhibition of human carbonic anhydrase isoforms I, II, IX and XII” (Bioorg Med Chem Lett, 2013)", "key": {"Carbonic anhydrase 9": {"molecular_target": "Carbonic anhydrase 9 (Homo sapiens, UniProt Q16790)", "assay": "Inhibition of human carbonic anhydrase-9 by stopped flow CO2 hydrase assay"}, "Carbonic anhydrase 12": {"molecular_target": "Carbonic anhydrase 12 (Homo sapiens, UniProt O43570)", "sequence (O43570 whole entry)": "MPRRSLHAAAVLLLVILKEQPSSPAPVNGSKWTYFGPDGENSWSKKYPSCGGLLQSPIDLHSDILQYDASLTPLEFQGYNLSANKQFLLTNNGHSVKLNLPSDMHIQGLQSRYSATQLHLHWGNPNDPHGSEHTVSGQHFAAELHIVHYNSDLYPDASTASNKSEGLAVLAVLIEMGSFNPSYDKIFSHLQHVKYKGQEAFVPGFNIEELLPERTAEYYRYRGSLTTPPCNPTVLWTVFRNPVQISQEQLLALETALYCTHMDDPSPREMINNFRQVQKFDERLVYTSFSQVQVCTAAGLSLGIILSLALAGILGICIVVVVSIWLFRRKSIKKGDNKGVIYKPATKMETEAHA", "description": "Inhibition of human carbonic anhydrase-12 by stopped flow CO2 hydrase assay"}}}
{"smiles": "CCC[C@H](C(=O)Nc1ccc(S(N)(=O)=O)cc1)C(C)(C)C", "values": [{"measurement": "Ki", "setting": "Carbonic anhydrase 9", "value": 96, "unit": "nM"}, {"measurement": "Ki", "setting": "Carbonic anhydrase 12", "value": 78, "unit": "nM"}]}
{"smiles": "NS(=O)(=O)c1ccc(NC(=O)Cc2cccs2)cc1", "values": [{"measurement": "Ki", "setting": "Carbonic anhydrase 9", "value": 19, "unit": "nM"}, {"measurement": "Ki", "setting": "Carbonic anhydrase 12", "value": 21, "unit": "nM"}]}
{"smiles": "NS(=O)(=O)c1ccc(NC(=O)Cc2ccccc2)cc1", "values": [{"measurement": "Ki", "setting": "Carbonic anhydrase 9", "value": 84, "unit": "nM"}, {"measurement": "Ki", "setting": "Carbonic anhydrase 12", "value": 71, "unit": "nM"}]}
